Measurements published in PubChem BioAssay AID1996.
Values after ≈ are worked out from the molar mass of the structure shown.

details: buffer; pH 7.4; 200.0 µM

Structure (SMILES)	solubility kinetic [µg/mL]
Cc1ccc(SCC(=O)NCC2CCCO2)cc1 (centres undefined)	> 39.8
Cc1cccc2cc3ccccc3nc12	< 0.4
Cn1c(=O)[nH]c(=O)c2c1nc1n2CCCN1Cc1ccccc1	8.1 (≈ 26 µM)
COCCn1c(C)cc(C(=O)COC(=O)CNC(=O)c2ccco2)c1C	45.2 (≈ 125 µM)
CC(NC(=O)c1ccc(F)cc1F)C1CC2CCC1C2 (centres undefined)	12.7 (≈ 45.5 µM)
COc1ccc(CN2C(=O)CSC2c2ccncc2)cc1 (centres undefined)	> 45.1
CCCCCN1CC(O)=C(c2nc3ccccc3[nH]2)C1=N	1.1 (≈ 3.87 µM)
COc1ccc(N/C=C\C(=O)c2ccc3ccccc3c2)cc1	< 0.6
O=C(NCCCNC(=O)c1ccccn1)c1ccc(F)cc1	> 45.2
Cn1c(Cl)c(/C=N/OC(=O)C(C)(C)C)c2ccccc21	0.7 (≈ 2.39 µM)
Cl.OC1(CNCc2ccccc2)C2CC3CC(C2)CC1C3 (centres undefined)	> 46.2
Cc1cccc(NC(=O)c2cc3c(s2)-c2c(C)cccc2OC3)n1	< 0.4
Nc1c(NCc2ccccc2)c(=O)c1=O	5.9 (≈ 29.2 µM)
O=C(NCCCNC(=O)c1ccco1)c1ccc(Cl)c(Cl)c1	44.2 (≈ 130 µM)
CSc1ccc(-c2nc(CN(C)C3CCOC3)c(C)o2)cc1 (centres undefined)	47.1 (≈ 148 µM)
Cc1ccc(C(C)C)cc1S(=O)(=O)NC1CC(C)(C)NC(C)(C)C1	35.2 (≈ 99.8 µM)
Cn1c(NNC(=O)c2c(F)cccc2F)cc(=O)n(C)c1=O	> 46.5
COc1ccc(N(Cc2cc3ccc(C)cc3[nH]c2=O)C(=O)C2CCCO2)cc1 (centres undefined)	10.1 (≈ 25.7 µM)
Cc1c(O)ccc(C(=O)CN2CCN(Cc3ccccc3)CC2)c1O	38.1 (≈ 112 µM)
O=C(CSc1nc2ccccc2[nH]1)NCc1ccccc1	33.7 (≈ 113 µM)
Cc1ccc(-c2nc(C#N)c(NCC3CCCO3)o2)cc1 (centres undefined)	37 (≈ 131 µM)
O=C(O)CSCC(=O)Nc1ccccn1	> 33.9
Cc1ccc(S(=O)(=O)Nc2ccc(Cl)cn2)cc1C	3.4 (≈ 11.5 µM)
O=C(NCC1CC1)c1ccccc1Cl	> 31.5

Structure (SMILES)	solubility kinetic [µg/mL]
O=C(CCn1c(=O)oc2cc(Cl)ccc21)Nc1ccc(O)cc1	> 49.9
O=c1[nH]c(-c2ccccc2)c(-c2ccccc2)nc1[N+](=O)[O-]	42.1 (≈ 144 µM)
Cc1noc(NS(=O)(=O)c2ccc(NC(=O)/C=C/c3ccccc3)cc2)c1C	> 59.6
Cc1ccc(C(C)C)cc1S(=O)(=O)Nc1cccnc1	3.5 (≈ 12.1 µM)
CC(C)C(NC(=O)c1ccc([N+](=O)[O-])cc1Cl)C(=O)N1CCCC1 (centres undefined)	> 53.1
O=C(NCC(F)(F)F)c1ccc(S(=O)(=O)Nc2ccccc2N2CCCC2)cc1	15.4 (≈ 36 µM)
Cc1ccc2nc(C(F)C(F)(F)F)[nH]c2c1 (centres undefined)	> 34.8
COc1cc(-c2nnc(SCC(=O)Nc3ccc(C(=O)O)cc3)o2)cc(OC)c1OC	> 66.8
CC(=O)N1CCOCCOCCOCC1	> 32.6
O=C(Nc1ccc(F)cc1F)NC1CCN(Cc2c(F)cccc2Cl)CC1	5 (≈ 12.6 µM)
CC(C)[C@H](NC(=O)c1ccccc1)C(=O)OCC(=O)NCc1ccc2c(c1)OCO2	> 61.9
O=C1C2C3C=CC(C4CC34)C2C(=O)N1c1cccc2ccccc12 (centres undefined)	42.7 (≈ 135 µM)
Cl.NCCc1c[nH]c2ccc(O)cc12	> 31.9
COc1ccc(S(=O)(=O)Nc2ccc(C)cn2)cc1	25.4 (≈ 91.3 µM)
Cc1cc(Nc2ccc(F)c(F)c2)nc(-c2ccccc2O)n1	< 0.2
CCOC(=O)CC(NC(=O)c1ccccc1)c1ccc(OC)cc1 (centres undefined)	36.4 (≈ 111 µM)
O=C(N=C1SC2CS(=O)(=O)CC2N1c1ccccc1)c1ccccc1 (centres undefined)	4 (≈ 10.7 µM)
O=c1[nH]c(SCCOc2ccccc2F)nc2ccccc12	0.9 (≈ 2.84 µM)
NC(=O)C1CCN(CC(=O)Nc2ccccc2N2CCOCC2)CC1	> 52
O=C1CN=C(c2ccc(F)cc2)c2oc3ccccc3c2N1	0.4 (≈ 1.36 µM)
CCOc1cccc(C(=O)NC(=S)Nc2ccc3c(c2)OCCO3)c1	4 (≈ 11.2 µM)
Cc1ccc(NC(=O)CN(C)CC(=O)Nc2ccccc2C#N)cc1	> 50.5
O=C(COC(=O)CNC(=O)c1cccc(OC(F)F)c1)NCc1ccc2c(c1)OCO2	22 (≈ 50.4 µM)
O=C(c1cccc(F)c1F)N1CCCc2ccccc21	31.1 (≈ 114 µM)

Structure (SMILES)	solubility kinetic [µg/mL]
COC(=O)C1=C(C)NC(C)=C(C(=O)OC)C1c1ccc(C)o1	13 (≈ 42.6 µM)
O=C(O)C1C2CCC(C2)C1C(=O)NCCc1ccc(F)cc1 (centres undefined)	> 45.8
CCCc1cnc(N2CCN(C(=O)c3c(-c4ccccc4)noc3C)CC2)nc1	40.7 (≈ 104 µM)
COc1ccc(/C=N/NC(=O)c2ccncc2)c(C(=O)O)c1OC	> 49.4
Cc1nc([N+](=O)[O-])cn1CC(=O)Nc1ccc(F)c(Cl)c1	1.2 (≈ 3.84 µM)
CC(=O)N=c1scc(-c2ccccc2)n1-c1cccc(O)c1	2.6 (≈ 8.38 µM)
Cc1ccc(-c2nc(C(Cl)Cl)c3ccccc3n2)cc1	< 0.3
CN(CC(=O)Nc1ccc(OC(F)(F)F)cc1)C(=O)/C=C/c1ccco1	7.7 (≈ 20.9 µM)
CCn1c(SCC(=O)OC(C)C)nnc1-c1ccccc1OC	> 50.3
C=CCNc1nc(Cl)nc(Nc2cc(Cl)ccc2OC)n1	< 0.1
O=C(NCc1ccc(Cl)c(Cl)c1)c1ccc2c(c1)OCO2	1.5 (≈ 4.63 µM)
CCCC(=O)N(Cc1cc(=O)[nH]c2ccccc12)c1ccccc1	> 48.1
CCc1ccc(Nc2ccc(C(=O)O)cc2[N+](=O)[O-])cc1	> 42.9
O=C(NCCN1CCCCC1)Nc1ccc(Br)cc1	48.4 (≈ 148 µM)
Cc1nc2ccccn2c1C(=O)NC1CCCC1	> 36.5
Cc1ccc(S(=O)(=O)N2CCN(c3ccc([N+](=O)[O-])cn3)CC2)cc1	< 0.2
C[C@H](NC(=O)c1ccco1)C(=O)Nc1ccc(C#N)cc1	> 42.5
CCc1ccccc1NC(=S)N(Cc1cccs1)C1CCCC1	13.9 (≈ 40.3 µM)
Cc1nc(N2CCN(C)CC2)c2c3c(sc2n1)CCCC3	41.4 (≈ 137 µM)
O=C(CS(=O)(=O)c1ccccc1)NCc1ccco1	40.7 (≈ 146 µM)
O=C(CCNS(=O)(=O)c1ccccc1)N1CCOCC1	> 44.8
CC(=O)Nc1c(O)nc(C)[nH]c1=O	> 27.5
O=C(COC(=O)CCSc1ccc(F)cc1)NCc1ccc(F)cc1	26.5 (≈ 72.5 µM)
O=[N+]([O-])c1ccccc1/C=C/c1ccc2ccccc2n1	< 0.3

Structure (SMILES)	solubility kinetic [µg/mL]
CCC(C)Nc1nc2c(c(=O)[nH]c(=O)n2C)n1CCCc1ccccc1 (centres undefined)	36.9 (≈ 104 µM)
N#C/C(=C/c1ccc(O)cc1)C(=O)NCc1ccc(Cl)cc1	4.3 (≈ 13.7 µM)
CCOC(=O)/C(C#N)=C/Nc1ccccc1OC(F)(F)F	1.2 (≈ 4 µM)
O=c1cnnc(Nc2ccccc2)[nH]1	> 28.2
COc1ccc(CNC(=O)C2CCN(S(C)(=O)=O)CC2)c(OC)c1	> 53.5
COc1cccc(-c2cc(-c3cccnc3)c(C#N)c(N)n2)c1	0.7 (≈ 2.32 µM)
Cn1cccc1C(=O)Nc1ccc(Cl)c(S(=O)(=O)N2CCCCC2)c1	8.7 (≈ 22.8 µM)
CCOC(Cn1ccc(=O)[nH]c1=O)OCC	> 34.2
CCOc1ccc(C(=O)NCC(c2cccs2)N2CCOCC2)cc1 (centres undefined)	> 54.1
NC(=S)Nc1ccc(Cl)c(Cl)c1	> 33.2
Cc1ccc(C)c(N(CC(=O)NC2CCCC2)S(=O)(=O)c2ccccc2)c1	< 0.4
CN1C(=O)C(O)(CC(=O)/C=C/c2ccco2)c2ccccc21 (centres undefined)	> 44.6
CC1CCCC(NC(=O)C2COc3ccccc3O2)C1C (centres undefined)	17.2 (≈ 59.4 µM)
N#Cc1ccc(NC(=O)c2cccs2)nc1	> 34.4
O=C(O)CCN1C(=O)C2C3c4ccccc4C(c4ccccc43)[C@@H]2C1=O (some centres undefined)	46.8 (≈ 135 µM)
CC1(C)CC2(CCCN(C(=S)Nc3ccccc3)C2)CCO1 (centres undefined)	46.4 (≈ 146 µM)
COc1cccc(NC(=O)Nc2nc(SC(C)(C)C)ns2)c1	1.1 (≈ 3.25 µM)
CC(C[N+](C)(C)C)OC(=O)C1(c2ccccc2)CCCC1 (centres undefined)	34.7
COc1ccc(-c2noc(=O)n2Cc2ccccc2F)cc1	29.6 (≈ 98.6 µM)
COc1ccccc1Nc1ccc([N+](=O)[O-])cn1	8.1 (≈ 33 µM)
Cc1ccc(OCC(O)Cn2nc(C)cc2C)cc1 (centres undefined)	> 39.1
c1ccc2c(c1)NCC1CCCN21 (centres undefined)	12.7 (≈ 72.9 µM)
CC(C)CNC(=O)CN1C(=O)NC2(CCc3ccccc32)C1=O (centres undefined)	> 47.3
CC(=O)c1ccc(NC(=O)CN2c3cccc4cccc(c34)S2(=O)=O)cc1	7.2 (≈ 18.9 µM)

Structure (SMILES)	solubility kinetic [µg/mL]
N#CC(=C=[N-])/C=C(\C(=O)c1ccccc1)[n+]1ccccc1	> 41
COc1cc(CCN)ccc1O.Cl	> 30.6
CCOc1cc(/C=C/c2nc3ccccc3c(=O)[nH]2)ccc1O	32.4 (≈ 105 µM)
CCCCOc1ccc(Cc2cnc(N)nc2N)cc1	36.3 (≈ 133 µM)
CCC(=O)c1ccc(OCC(=O)NCc2ccccc2CN2CCCC2)cc1	> 57.1
COc1ccc([N+](=O)[O-])cc1NC(=O)c1csc(C)c1	< 0.3
CCc1cc(C(=O)c2ccc(OC)cc2)c(NC(=O)CCC(=O)O)s1	> 54.2
Cc1cc(NC(=O)c2cc(C(C)(C)C)oc2C)no1	0.9 (≈ 3.43 µM)
CN(c1ccccc1)S(=O)(=O)c1ccc(C(=O)NCc2ccccc2F)cc1	10.4 (≈ 26.1 µM)
CCc1ccc(NC(=S)N2CCN(c3cccc(OC)c3)CC2)cc1	0.3 (≈ 0.844 µM)
CSc1nc2sc3c(c2c(=S)[nH]1)CC(C)(C)OC3	10.6 (≈ 35.5 µM)
C#CCOC(=O)Nc1cc(C)n(-c2ccccc2)n1	> 38.3
Cn1c(=O)c2ccccc2n(Cc2cccc(F)c2)c1=O	3.6 (≈ 12.7 µM)
CC1CCCC(NC(=O)CSc2ncnc3ccccc23)C1C (centres undefined)	24.1 (≈ 73.1 µM)
NS(=O)(=O)c1ccc(NNC(=O)c2ccc(Br)o2)c([N+](=O)[O-])c1	> 60.8
Nc1ccc(Oc2ccc3c(c2)OCO3)cc1	27.3 (≈ 119 µM)
CC(CCc1ccccc1)NC(=O)COC(=O)c1ccccc1O (centres undefined)	1.8 (≈ 5.5 µM)
OCCCNc1ncnc2scc(-c3ccc(Cl)cc3)c12	> 48
COc1cccc(/C=C/C(=O)c2cccc([N+](=O)[O-])c2)c1	2.4 (≈ 8.47 µM)
CC(=O)Nc1ccc(NC(=O)c2cc([N+](=O)[O-])cc([N+](=O)[O-])c2)cc1	7.9 (≈ 22.9 µM)
CCn1cc(CCC(=O)NC2CCCC2)c2ccccc21	40.4 (≈ 142 µM)
COc1cccc(NC(=O)CN(C)C(=O)c2ccccn2)c1	> 44.9
CC1CCN(C(=O)COC(=O)c2ccc3c(c2)OCCO3)CC1	> 47.9
